Reference: the supplement of paper PMC13380429

How the values were obtained:
Settings in all cases: 72 h
[1] = tested on: Caco-2; test: cell viability relative to DMSO; higher = less toxic
[2] = tested on: Calu-3; test: as above
[3] = tested on: HepG2; test: as above
[4] = tested on: U2OS; test: as above
[5] = tested on: Caco-2; test: relative viability EC50 (midpoint between 100% and the lowest measured viability); higher = less toxic
[6] = tested on: Calu-3; test: as above
[7] = tested on: HepG2; test: as above
[8] = tested on: U2OS; test: as above
[9] = tested on: Caco-2; test: drug sensitivity score (DSS) for viability; higher = more toxic; extreme values may be limits of the assay
[10] = tested on: Calu-3; test: as above
[11] = tested on: HepG2; test: as above
[12] = tested on: U2OS; test: as above
[13] = tested on: Vero E6; test: cell viability relative to DMSO; higher = less toxic
[14] = tested on: Vero E6; test: drug sensitivity score (DSS) for viability; higher = more toxic; extreme values may be limits of the assay
[15] = tested on: Vero E6; test: relative viability EC50 (midpoint between 100% and the lowest measured viability); higher = less toxic

Row | Compound | cell viability ([1]; 1 nM) [%] | cell viability ([1]; 10 nM) [%] | cell viability ([1]; 100 nM) [%] | cell viability ([1]; 1000 nM) [%] | cell viability ([1]; 10000 nM) [%] | cell viability ([2]; 1 nM) [%] | cell viability ([2]; 10 nM) [%] | cell viability ([2]; 100 nM) [%] | cell viability ([2]; 1000 nM) [%] | cell viability ([2]; 10000 nM) [%] | cell viability ([3]; 1 nM) [%] | cell viability ([3]; 10 nM) [%] | cell viability ([3]; 100 nM) [%] | cell viability ([3]; 1000 nM) [%] | cell viability ([3]; 10000 nM) [%] | cell viability ([4]; 1 nM) [%] | cell viability ([4]; 10 nM) [%] | cell viability ([4]; 100 nM) [%] | cell viability ([4]; 1000 nM) [%] | cell viability ([4]; 10000 nM) [%] | relative viability EC50 [5] [µM] | relative viability EC50 [6] [µM] | relative viability EC50 [7] [µM] | relative viability EC50 [8] [µM] | drug sensitivity score [9] | drug sensitivity score [10] | drug sensitivity score [11] | drug sensitivity score [12] | cell viability ([13]; 1 nM) [%] | cell viability ([13]; 10 nM) [%] | cell viability ([13]; 100 nM) [%] | cell viability ([13]; 1000 nM) [%] | cell viability ([13]; 10000 nM) [%] | drug sensitivity score [14] | relative viability EC50 [15] [µM]
1 | C=CCN1CCc2cc(O)c(O)cc2[C@H](c2ccccc2)C1 | 95.1 | 91.8 | 86.5 | 99.5 | 79.4 | 89.8 | 92 | 103 | 103 | 99 | 100 | 93.3 | 105 | 92.5 | 86.9 | 99.7 | 99.3 | 96.9 | 102 | 92.8 | > 10 | > 10 | > 10 | > 10 | 0.7 | 0 | 0.5 | 0 | – | – | – | – | – | – | –
2 | COc1ccc2c(NC(=O)Nc3cccc(C(F)(F)F)n3)ccnc2c1 | 97.7 | 106 | 100 | 95.5 | 93.4 | 97.6 | 99 | 96.1 | 94.8 | 93.6 | 108 | 108 | 93.8 | 105 | 95.6 | 102 | 96.6 | 106 | 101 | 104 | > 10 | > 10 | > 10 | > 10 | 0 | 0 | 0 | 0 | – | – | – | – | – | – | –
3 | COc1cccc(OCCCN)c1-c1cc(Nc2cnc(C#N)cn2)n[nH]1 | 98.9 | 101 | 86.7 | 15.5 | 21 | 106 | 99.9 | 69.6 | 48.1 | 57.8 | 97.4 | 97.4 | 35.7 | 38.3 | 25.6 | 101 | 86.7 | 5.2 | 2.8 | 2.5 | 0.194 | 0.0872 | 0.0431 | 0.022 | 17.6 | 13.3 | 21.7 | 31.6 | 92.9 | 101 | 84.9 | 61.1 | 65.3 | 9 | –
4 | Cc1cnc(-c2cnc(NCCNc3ccc(C#N)cn3)nc2-c2ccc(Cl)cc2Cl)[nH]1 | 99.5 | 105 | 95.7 | 110 | 99.6 | 87.6 | 107 | 99.1 | 110 | 89.7 | 104 | 99.3 | 107 | 113 | 98.4 | – | – | – | – | – | > 10 | > 10 | > 10 | – | 0 | 0 | 0 | – | 101 | 100 | 94.9 | 97.6 | 76.8 | 1.2 | > 10
5 | N#Cc1ccccc1OCC(O)CNCCNC(=O)Nc1ccccc1 (configuration not stated) | 101 | 102 | 91.4 | 99.5 | 101 | 100 | 94.7 | 102 | 92.8 | 92.4 | 108 | 102 | 110 | 107 | 93.6 | 99.5 | 94.3 | 95.3 | 95.7 | 97.1 | > 10 | > 10 | > 10 | > 10 | 0 | 0 | 0 | 0 | – | – | – | – | – | – | –
6 | Nc1ccc(C(=O)NCC(=O)O)cc1 [4-aminohippuric-acid] | 97.1 | 99.7 | 100 | 89.5 | 93 | 106 | 91.1 | 109 | 106 | 101 | 100 | 107 | 99 | 104 | 89.8 | – | – | – | – | – | > 10 | > 10 | > 10 | – | 0.1 | 0 | 0 | – | 97.5 | 99.1 | 101 | 100 | 96.2 | 0 | > 10
7 | CC(C)(C)c1ccc(/C=C/C(=O)Nc2ccc3c(c2)OCCO3)cc1 [AMG-9810] | 94.9 | 92.8 | 99.3 | 90.4 | 67.8 | 103 | 98.3 | 101 | 94.5 | 78.8 | 98.3 | 101 | 97.9 | 103 | 33.1 | 96.4 | 97.4 | 98.2 | 96.7 | 89.7 | – | > 10 | 3.43 | > 10 | 2.9 | 1.4 | 3.4 | 0 | 98.3 | 102 | 96 | 97 | 89.4 | 0 | > 10
8 | Cc1cnc(CNC(=O)c2c(=O)c3ccc(N4CCCN(C)CC4)nc3n3c2sc2ccccc23)cn1 [CX-5461] | 106 | 114 | 95.5 | 121 | 75.9 | 93.9 | 105 | 100 | 100 | 84 | 110 | 108 | 110 | 71.6 | 30.5 | 99.5 | 102 | 96.9 | 106 | 98.4 | > 10 | > 10 | 1.16 | > 10 | 0.5 | 0.3 | 7.6 | 0 | 114 | 92.3 | 106 | 84.2 | 53.3 | 4.7 | –
9 | CCCCCCN(CCCCCC)C(=O)Cc1c(-c2ccc(F)cc2)[nH]c2ccccc12 [FGIN-1-27] | 99.5 | 99.6 | 89.2 | 94.3 | 68.6 | 96 | 99.2 | 99.8 | 102 | 89 | 104 | 95.2 | 94.3 | 106 | 96.6 | 98.5 | 102 | 103 | 100 | 92.3 | – | > 10 | > 10 | > 10 | 2.2 | 0 | 0 | 0 | 98.6 | 94.5 | 94 | 95.2 | 92.8 | 0 | > 10
10 | O=C(NCCS(=O)(=O)c1ccc(C(F)(F)F)cn1)c1ccc(Cl)cc1 [GSK3787] | 99.8 | 95.5 | 102 | 99.7 | 99.8 | 104 | 94.8 | 103 | 100 | 97.7 | 97.7 | 102 | 117 | 99.6 | 102 | – | – | – | – | – | > 10 | > 10 | > 10 | – | 0 | 0 | 0 | – | 97.8 | 97.3 | 91.2 | 89.9 | 101 | 0 | > 10
11 | CCc1cnc(N2CCC(c3nc(COc4ccc(-n5cnnn5)cc4)cs3)CC2)nc1 [MBX-2982] | 95.8 | 107 | 86.9 | 96.1 | 67.5 | 97.5 | 92 | 109 | 102 | 103 | 97.4 | 94.6 | 93.2 | 99.7 | 36 | 103 | 94.8 | 96.7 | 96.2 | 93.7 | – | > 10 | 3.13 | > 10 | 2.1 | 0 | 3.5 | 0 | 102 | 106 | 105 | 97.2 | 80.4 | 0.9 | > 10
12 | Cc1ccc(-c2ncn(-c3ccc(Nc4nccc(-c5cccc(N6CCOCC6)c5)n4)cc3)n2)cn1 [SR-3306] | 99.3 | 98.7 | 95.9 | 92.2 | 67.5 | 99.9 | 98.3 | 87.8 | 94.7 | 98.6 | 99.8 | 90.8 | 100 | 98.9 | 40.9 | 102 | 104 | 97.9 | 103 | 78 | – | > 10 | 3.04 | > 10 | 2.6 | 0 | 3.3 | 0.6 | 109 | 109 | 106 | 99.1 | 92.9 | 0 | > 10
13 | COc1cccc(OC)c1OCCNC[C@H]1COc2ccccc2O1 [WB-4101] | 105 | 104 | 106 | 106 | 85.3 | 107 | 102 | 104 | 90.9 | 80.8 | 106 | 109 | 107 | 103 | 93.2 | – | – | – | – | – | > 10 | > 10 | > 10 | – | 0.1 | 1.4 | 0 | – | 104 | 100 | 99.1 | 98.2 | 98.5 | 0 | > 10
14 | CC[N+](CC)(CCCNC1=CC(=O)C(NCCC[N+](CC)(CC)Cc2ccccc2)=CC1=O)Cc1ccccc1 [benzoquinonium-dibromide] | 94.5 | 98.6 | 95.4 | 96.3 | 91.7 | 103 | 92.9 | 108 | 104 | 96.8 | 96.3 | 106 | 95.2 | 100 | 95 | 94.6 | 94.4 | 96.8 | 95.8 | 98.3 | > 10 | > 10 | > 10 | > 10 | 0 | 0 | 0 | 0 | – | – | – | – | – | – | –
15 | N#Cc1cnc2c(Cl)cc(NCc3cn(CCN4CCCCCC4)nn3)cc2c1Nc1ccc(F)c(Cl)c1 [cot-inhibitor-1] | 92.1 | 99.7 | 105 | 98 | 67.8 | 104 | 103 | 99.5 | 96.9 | 96.2 | 95 | 107 | 96.7 | 120 | 80.6 | 102 | 103 | 101 | 101 | 77 | – | > 10 | > 10 | > 10 | 1.7 | 0 | 0.2 | 0.7 | 94.2 | 102 | 92.2 | 96.9 | 103 | 0 | > 10
